Assay results reported in patent US8501977B2, “Platinum complex and pharmaceutical composition containing the same” (Unitech Co., Ltd., priority 2008, dated 2013).

Tested on: U937 (human lymphoma cell)
Assay: MTS cell proliferation test, U937 (Embodiment 7)
Assay type: cell-based
Conditions: U937; summary of Table 1 in words
Method: The test solution was prepared by dissolving the (compound 1) into the dimethylsulfoxide ([…]) with the concentration of 8 mg/ml.
The test was performed by using the U937 (human lymphoma cell) as the cancer cell and using the HEK293 (human fetus kidney cell) as the normal cell.
These cells were suspended in the each culture medium that the serum of 10% was added, and were dispensed in 96-well plate. And then, these were cultured in 5% CO2 at 37 degrees centigrade during a night. Next day, the test solution was prepared in the culture medium to the various concentrations (0, 4, 8, 16 μg/ml), and was dispensed into the plate that the cells were set preliminarily. And further, these were cultured in 5% CO2 at 37 degrees centigrade for three days.
The cell proliferation after the medicine addition was measured on the 3rd day from the 1st day after the medicine addition by the […] (Kit for cell proliferation test manufactured by Promega Company).
The inhibition rate (%) of the cell proliferation was obtained from the measured MTS value by the following formula. Inhibition rate(%)=(1-MTS value of medicine addition group/MTS value of medicine non-addition group)×100
Because the value which was obtained by the above-mentioned formula represents the inhibition rate of the cell proliferation, the higher the numerionl value is, the higher the medicine effect is. It is deemed that the one whose value is 50% or more has the medicine effect.

SMILES: O=C1[O][Pt]2([NH][C@H]3CCCC34CCC[C@@H]4[NH]2)[O]C1=O (stereo partly drawn) [compound 1, (cis,cis-spiro[4,4]nonane-1,6-diamine) oxalatoplatinum(II) complex]
- medicine effect in the cancer cell (U937): remarkable medicine effect
